{
  "source": "paper PMC4349960",
  "about": "“[^18F]FE@SUPPY: a suitable PET tracer for the adenosine A3 receptor? An in vivo study in rodents” (European Journal of Nuclear Medicine and Molecular Imaging, 2015)",
  "key": {"[1]": {"parameters": "method as in PMID 18158944", "details": "cited from earlier work"}, "[2]": {"molecular_target": "T1, CHO cells expressing the human A3R (CHO-A3) (Homo sapiens, UniProt P0DMS8)", "T1 construct": "Karl-Norbert Klotz (University of Würzburg); host or cells: CHO cells stably transfected (CHO-A3), grown as subcutaneous masses in NMRI-nu/nu mice", "T1 sequence (P0DMS8 1-318)": "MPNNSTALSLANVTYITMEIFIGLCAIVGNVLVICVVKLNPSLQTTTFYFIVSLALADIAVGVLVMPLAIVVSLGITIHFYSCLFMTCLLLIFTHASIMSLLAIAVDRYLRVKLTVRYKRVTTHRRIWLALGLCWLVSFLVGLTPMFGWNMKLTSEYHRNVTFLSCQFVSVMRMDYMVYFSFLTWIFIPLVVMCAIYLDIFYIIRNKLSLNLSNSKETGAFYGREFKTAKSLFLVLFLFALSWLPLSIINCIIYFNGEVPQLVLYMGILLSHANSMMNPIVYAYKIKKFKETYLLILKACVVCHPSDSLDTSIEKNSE", "assay": "Xenograft mouse model PET (CHO vs CHO-A3 solid tissue masses)", "assay_type": "in vivo, mice", "experimental": "Adult male Sprague-Dawley rats (Him:OFA; Animal Research Institute, Himberg, Austria) weighing 307 ± 35 g were kept under controlled environmental conditions (22 ± 1 °C, 40 – 70 % humidity, 12-h light/dark cycle) with free access to standard laboratory animal diet and tap water. Before being used in the experiments, the animals were allowed to adapt to the new conditions for at least a week. Prior to each experiment, the animals were placed in a chamber containing 2.5 % isoflurane in oxygen. When unconscious, the animals were taken from the chamber and kept under anaesthesia with 1.8 % isoflurane administered via a mask during the whole experiment. Pathogen-free, female NMRI-nu/nu mice (Taconic, Denmark) weighing 28.1 ± 0.8 g were housed under sterile conditions. Mice were injected subcutaneously into both upper flanks with 100 μL of a cell suspension in phosphate-buffered saline containing 10^6 CHO cells (right side) or 10^6 CHO-A3 cells (left side). During the imaging periods of 60 or 90 min (rats or xenografted mice, respectively) the isoflurane level was adjusted depending on the depth of anaesthesia. A humidifier was used to moisten the gas mixture before supplying it to the animal.\nAround 17 days after cell inoculation, animals in the xenograft group were positioned in the imaging chamber and a dynamic 90-min PET scan was initiated at the start of [^18F]FE@SUPPY injection (2.21 ± 0.75 MBq dissolved in 100 μl physiological saline, pH 7.4; three animals) via a tail vein under isoflurane anaesthesia (2 %). Additionally, in this group, [^18F]FDG PET was performed 1 day prior to the [^18F]FE@SUPPY experiments. […] In brief, mice were deprived of food for 6 – 8 h before [^18F]FDG injection via a tail vein. Mice had access to drinking water at all times. Body warming was achieved by placing the entire cage on a heating pad kept at 38 °C. Warming was started around 30 min before tracer injection and was continued throughout the uptake and imaging period. [^18F]FDG (6.03 ± 1.31 MBq dissolved in 100 μL physiological saline, pH 7.4; three animals) was injected via a tail vein under isoflurane anaesthesia (2 %). Mice were kept under isoflurane anaesthesia throughout the whole uptake and imaging period. A 10-min static image was acquired at 1 h after [^18F]FDG injection. […]\nFor all PET scans (rats and xenografted mice), list mode data were acquired with an energy window of 350 – 750 keV (rats) or 250 – 750 keV (mice) and a 6-ns timing window. Before each PET scan, a transmission scan using a ^57Co point source was recorded over 10 min. […] A calibration factor for converting units of microPET images into absolute radioactivity concentration units was first generated by imaging a phantom filled with a known concentration of [^18F]FDG. […]"}, "[3]": {"parameters": "method as in doi:10.2174/1876388X00901010015", "details": "cited from earlier work"}},
  "data": [
    {"smiles": "CCSC(=O)c1c(CC)nc(-c2ccccc2)c(C(=O)OCC[18F])c1CC", "note": "[[^18F]FE@SUPPY, 5-(2-[^18F]fluoroethyl)-2,4-diethyl-3-(ethylsulfanylcarbonyl)-6-phenylpyridine-5-carboxylate]", "values": [
      {"measurement": "Biodistribution in rats", "setting": "[1]", "result": "Followed mainly A3 pattern (except testes) [3]"},
      {"measurement": "Bone uptake in rats", "setting": "[1]", "result": "None [3]"},
      {"measurement": "Brain to blood uptake ratio in biodistribution experiments", "setting": "[1]; rats", "result": "up to 5.4"},
      {"measurement": "brain-to-blood ratios over time", "setting": "[1]; rats", "result": "increase over time"},
      {"measurement": "Xenograft model of human A3R, finding", "setting": "[2]; compared to [^18F]FDG", "result": "Specific uptake in CHO-A3 solid mass (p ≤ 0.03) compared to [^18F]FDG"},
      {"measurement": "increased uptake (AUC) in CHO-A3 versus CHO tissue masses", "setting": "[2]; xenografted NMRI-nu/nu mice, 90-min PET", "result": "around 1.42 fold"},
      {"measurement": "logP assessment", "setting": "[3]", "result": "high lipophilicity"},
      {"measurement": "HPLClogD^7.4", "setting": "[3]; pH 7.4", "result": 4.04}
    ]}
  ]
}
